How the values were obtained:
ducksalad = experiment: Test D flooded paddy test; assay type: in vivo, Heteranthera limosa; settings: 250 g ai/ha, applied to paddy water, visual rating after 13 to 14 days, scale 0 to 100 (0 no effect, 100 complete control)
Outline: (§1)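 Visual ratings from 0, meaning no effect, to 100, meaning complete control, were assigned against untreated controls 13 to 14 days after compounds were added to the floodwater of pots kept 3 cm deep, with plants at the 2-leaf stage.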

ryegrass, Italian [1] = experiment: Test C postemergence; assay type: in vivo, Lolium multiflorum; settings: 10 days, 0 to 100 scale (0 no effect, 100 complete control)
Outline: (§2)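 Visual injury score, 0–100 (100 = complete control), taken 10 days after treatment relative to untreated controls. Pre: directed spray onto soil over sown seeds. Post: foliar spray at one- to two-leaf stage, 2–10 cm. Solvent/surfactant formulation; loam–sand soil; greenhouse.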

barnyardgrass [2] = experiment: Test C preemergence; assay type: in vivo, Echinochloa crusgalli
Outline: as §2

blackgrass [3] = experiment: Test C preemergence; assay type: in vivo, Alopecurus myosuroides
Outline: as §2

galium = experiment: Test C postemergence; assay type: in vivo, Galium aparine; settings: 10 days, 0 to 100 scale (0 no effect, 100 complete control)
Outline: as §2

soybean [4] = experiment: Test C postemergence; assay type: in vivo, Glycine max; settings: 10 days, 0 to 100 scale (0 no effect, 100 complete control)
Outline: as §2

ragweed [5] = experiment: Test C preemergence; assay type: in vivo, Ambrosia artemisiifolia
Outline: as §2

pigweed, palmer [6] = experiment: Test C postemergence; assay type: in vivo, Amaranthus palmeri; settings: 10 days, 0 to 100 scale (0 no effect, 100 complete control)
Outline: as §2

rice = experiment: Test D flooded paddy test; assay type: in vivo, Oryza sativa; settings: 250 g ai/ha, applied to paddy water, visual rating after 13 to 14 days, scale 0 to 100 (0 no effect, 100 complete control)
Outline: as §1

barnyardgrass [7] = experiment: Test C postemergence; assay type: in vivo, Echinochloa crusgalli; settings: 10 days, 0 to 100 scale (0 no effect, 100 complete control)
Outline: as §2

wheat [8] = experiment: Test C preemergence; assay type: in vivo, Triticum aestivum
Outline: as §2

corn [9] = experiment: Test C preemergence; assay type: in vivo, Zea mays
Outline: as §2

kochia [10] = experiment: Test C preemergence; assay type: in vivo, Bassia scoparia
Outline: as §2

ryegrass, Italian [11] = experiment: Test C preemergence; assay type: in vivo, Lolium multiflorum
Outline: as §2

corn [12] = experiment: Test C postemergence; assay type: in vivo, Zea mays; settings: 10 days, 0 to 100 scale (0 no effect, 100 complete control)
Outline: as §2

oat, wild [13] = experiment: Test C postemergence; assay type: in vivo, Avena fatua; settings: 10 days, 0 to 100 scale (0 no effect, 100 complete control)
Outline: as §2

green foxtail [14] = experiment: Test C preemergence; assay type: in vivo, Setaria viridis
Outline: as §2

soybean [15] = experiment: Test C preemergence; assay type: in vivo, Glycine max
Outline: as §2

oat, wild [16] = experiment: Test C preemergence; assay type: in vivo, Avena fatua
Outline: as §2

wheat [17] = experiment: Test C postemergence; assay type: in vivo, Triticum aestivum; settings: 10 days, 0 to 100 scale (0 no effect, 100 complete control)
Outline: as §2

pigweed, palmer [18] = experiment: Test C preemergence; assay type: in vivo, Amaranthus palmeri
Outline: as §2

green foxtail [19] = experiment: Test C postemergence; assay type: in vivo, Setaria viridis; settings: 10 days, 0 to 100 scale (0 no effect, 100 complete control)
Outline: as §2

ragweed [20] = experiment: Test C postemergence; assay type: in vivo, Ambrosia artemisiifolia; settings: 10 days, 0 to 100 scale (0 no effect, 100 complete control)
Outline: as §2

horseweed = experiment: Test C postemergence; assay type: in vivo, Erigeron canadensis; settings: 10 days, 0 to 100 scale (0 no effect, 100 complete control)
Outline: as §2

kochia [21] = experiment: Test C postemergence; assay type: in vivo, Bassia scoparia; settings: 10 days, 0 to 100 scale (0 no effect, 100 complete control)
Outline: as §2

sedge, umbrella = experiment: Test D flooded paddy test; assay type: in vivo, Cyperus difformis; settings: 250 g ai/ha, applied to paddy water, visual rating after 13 to 14 days, scale 0 to 100 (0 no effect, 100 complete control)
Outline: as §1

blackgrass [22] = experiment: Test C postemergence; assay type: in vivo, Alopecurus myosuroides; settings: 10 days, 0 to 100 scale (0 no effect, 100 complete control)
Outline: as §2

barnyardgrass [23] = experiment: Test D flooded paddy test; assay type: in vivo, Echinochloa crus-galli; settings: 250 g ai/ha, applied to paddy water, visual rating after 13 to 14 days, scale 0 to 100 (0 no effect, 100 complete control)
Outline: as §1

[24] = 500 g ai/ha, preemergence, 0 to 100 scale (0 no effect, 100 complete control)
[25] = Preemergence, 125 g ai/ha, 0 to 100 scale, 0 no effect, 100 complete control

CC(C)(C)c1ncn(-c2cccc(C(=O)N3CC(C(F)(F)F)Oc4c(Cl)cccc43)c2)n1 (stereo not shown) [Compound 353]
70: Barnyardgrass plant response rating (barnyardgrass [2]; [24]) | Plant response rating, Galium (galium; Postemergence, 125 g ai/ha) | Kochia plant response rating (kochia [10]; [24]) | Plant response rating, Kochia (kochia [21]; 500 g ai/ha, postemergence)
100: Plant response rating, Pigweed, Palmer (pigweed, palmer [6]; 500 g ai/ha, postemergence) | Foxtail, Green plant response rating (green foxtail [14]; [24]) | Pigweed, Palmer plant response rating (pigweed, palmer [18]; [24])
90: Plant response rating, Galium (galium; 500 g ai/ha, postemergence) | Plant response rating, Pigweed, Palmer (pigweed, palmer [6]; Postemergence, 125 g ai/ha) | Ryegrass, Italian plant response rating (ryegrass, Italian [11]; [24]) | Plant response rating, Foxtail, Green (green foxtail [14]; [25]) | Plant response rating, Pigweed, Palmer (pigweed, palmer [18]; [25])
10: Plant response rating, Barnyardgrass (barnyardgrass [7]; Postemergence, 125 g ai/ha) | Plant response rating, Wheat (wheat [8]; [25]) | Corn plant response rating (corn [9]; [24]) | Plant response rating, Corn (corn [9]; [25]) | Plant response rating, Corn (corn [12]; 500 g ai/ha, postemergence) | Plant response rating, Corn (corn [12]; Postemergence, 125 g ai/ha)
30: Plant response rating, Barnyardgrass (barnyardgrass [7]; 500 g ai/ha, postemergence) | Wheat plant response rating (wheat [8]; [24]) | Plant response rating, Oat, Wild (oat, wild [16]; [25]) | Plant response rating, Blackgrass (blackgrass [22]; 500 g ai/ha, postemergence)
50: Blackgrass plant response rating (blackgrass [3]; [24]) | Plant response rating, Ragweed (ragweed [20]; Postemergence, 125 g ai/ha)
60: Plant response rating, Ragweed (ragweed [20]; 500 g ai/ha, postemergence) | Plant response rating, Kochia (kochia [21]; Postemergence, 125 g ai/ha)
40: Plant response rating, Ryegrass, Italian (ryegrass, Italian [1]; 500 g ai/ha, postemergence) | Soybean plant response rating (soybean [15]; [24]) | Plant response rating, Foxtail, Green (green foxtail [19]; 500 g ai/ha, postemergence)
0: Plant response rating, Ducksalad (Flood) (ducksalad) | Plant response rating, Blackgrass (blackgrass [3]; [25]) | Ragweed plant response rating (ragweed [5]; [24]) | Plant response rating, Ragweed (ragweed [5]; [25]) | Plant response rating, Rice (Flood) (rice) | Plant response rating, Kochia (kochia [10]; [25]) | Plant response rating, Oat, Wild (oat, wild [13]; 500 g ai/ha, postemergence) | Plant response rating, Oat, Wild (oat, wild [13]; Postemergence, 125 g ai/ha) | Plant response rating, Horseweed (horseweed; 500 g ai/ha, postemergence) | Plant response rating, Sedge, Umbrella (Flood) (sedge, umbrella) | Plant response rating, Blackgrass (blackgrass [22]; Postemergence, 125 g ai/ha) | Plant response rating, Barnyardgrass (Flood) (barnyardgrass [23])
20: Plant response rating, Ryegrass, Italian (ryegrass, Italian [1]; Postemergence, 125 g ai/ha) | Plant response rating, Barnyardgrass (barnyardgrass [2]; [25]) | Plant response rating, Soybean (soybean [15]; [25]) | Plant response rating, Wheat (wheat [17]; 500 g ai/ha, postemergence) | Plant response rating, Wheat (wheat [17]; Postemergence, 125 g ai/ha) | Plant response rating, Foxtail, Green (green foxtail [19]; Postemergence, 125 g ai/ha) | Plant response rating, Horseweed (horseweed; Postemergence, 125 g ai/ha)
80: Plant response rating, Soybean (soybean [4]; 500 g ai/ha, postemergence) | Plant response rating, Soybean (soybean [4]; Postemergence, 125 g ai/ha) | Plant response rating, Ryegrass, Italian (ryegrass, Italian [11]; [25]) | Oat, Wild plant response rating (oat, wild [16]; [24])
